From patent publication US5589506A, “Stilbene derivative and stilbene analog derivative, and use thereof” (Morinaga Milk Industry Co., Ltd., priority 1993, dated 1996)
Entries after “also recorded” stand apart in the source; their conditions may differ. Like-named read-outs stand apart in the source and are kept apart here.

What was measured:
12-lipoxygenase [1] = details: background; cited from earlier work
12-lipoxygenase [2] = molecular target: T1, 12-lipoxygenase (Rattus norvegicus, UniProt F1LQ70); test: 12-lipoxygenase inhibition assay (rat platelet enzyme solution); assay type: biochemical, Sprague Dawley male rat
T1 construct: The pelleted platelets were rinsed twice with a washing buffer; from tissue; host or cells: platelets of Sprague Dawley male rat (sonicate, 100,000 x g supernatant)
T1 sequence (F1LQ70 1-663): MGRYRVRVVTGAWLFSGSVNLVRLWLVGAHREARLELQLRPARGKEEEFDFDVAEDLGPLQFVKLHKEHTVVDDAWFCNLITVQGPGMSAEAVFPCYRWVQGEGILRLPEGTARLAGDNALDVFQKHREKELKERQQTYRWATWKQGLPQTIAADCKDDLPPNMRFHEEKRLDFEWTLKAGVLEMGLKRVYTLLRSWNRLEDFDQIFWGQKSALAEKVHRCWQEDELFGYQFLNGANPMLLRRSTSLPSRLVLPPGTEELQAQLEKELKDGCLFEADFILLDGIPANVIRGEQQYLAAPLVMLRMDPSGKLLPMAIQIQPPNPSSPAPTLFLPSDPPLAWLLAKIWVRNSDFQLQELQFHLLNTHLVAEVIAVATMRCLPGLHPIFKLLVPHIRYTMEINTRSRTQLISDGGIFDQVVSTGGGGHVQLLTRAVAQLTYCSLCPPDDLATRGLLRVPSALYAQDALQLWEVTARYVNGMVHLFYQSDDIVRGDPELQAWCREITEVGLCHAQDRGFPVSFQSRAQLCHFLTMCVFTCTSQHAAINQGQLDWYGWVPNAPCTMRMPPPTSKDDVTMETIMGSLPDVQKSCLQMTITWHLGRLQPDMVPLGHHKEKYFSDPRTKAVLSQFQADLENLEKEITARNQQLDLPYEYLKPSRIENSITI
Procedure: The test was performed to examine inhibitory effect of various compounds on the 12-lipoxyganase activity.
1) Preparation of Enzyme Solution
A Sprague Dawley male rat was anesthetized with ether and bled from abdominal aorta using a syringe filled with about one-tenth volume of 3.8% sodium citrate. Blood was centrifuged at 180×g for 15 minutes at room temperature to pellet sanguineous platelet blood plasma. The resultant supernatant was again centrifuged at 1800×g for 10 minutes at 4° C. The pelleted platelets were rinsed twice with a washing buffer (50 mM Tris-hydrochloric acid buffer containing 154 mM sodium chloride and 2 mM EDTA, pH: 7.4). The platelets were then suspended in one-twentieth volume of a resuspension buffer (50 mM Tris-hydrochloric acid buffer containing 154 mM sodium chloride and 5.5 mM glucose, pH: 7.4). The platelets were then sonicated at 4° C. and centrifuged at 100,000×g for 30 minutes to obtain a supernatant as a 12-lipoxgenaseenzyme solution.
2) Procedure for 12-lipoxgenase inhibition assay
The enzyme solution described above was diluted with the resuspension buffer above mentioned to prepare an assay solution so as to include about 2 mU/ml of 12-lipoxygenase. […] The resultant mixture was incubated at 37° C. for 5 minutes. Subsequently, 3 μl of a 2.5 mM arachidonic acid solution in ethanol was added to incubate with for another 5 minutes at 37° C., then the reaction was ceased by the addition of 600 μl of methanol. After being centrifuged at 10,000×g for 5 minutes, 12-hydroxyeicosatetraenoic acid recovered in the supernatant was separated with a reverse phase high-performance liquid chromatography equipped with a […] the activity of 12 lipoxygenase.
The enzyme solution was prepared according to the same manner as in Test Example 1.
It was prepared according to the same procedure as in Test Example 1.
Measurement was performed according to the same procedure as in Test Example 1.
The measurement was performed according to the same procedure as in Test Example 1.

5-lipoxygenase = molecular target: T2, 5-lipoxygenase (Rattus norvegicus, UniProt P12527); test: 5-lipoxygenase inhibition assay (rat basophilic leukemia cell RBL-1 enzyme solution); assay type: biochemical
T2 construct: Cultured cells were collected and washed twice; host or cells: RBL-1 rat basophilic leukemia cells (sonicate, 10,000 x g supernatant)
T2 sequence (P12527 1-673): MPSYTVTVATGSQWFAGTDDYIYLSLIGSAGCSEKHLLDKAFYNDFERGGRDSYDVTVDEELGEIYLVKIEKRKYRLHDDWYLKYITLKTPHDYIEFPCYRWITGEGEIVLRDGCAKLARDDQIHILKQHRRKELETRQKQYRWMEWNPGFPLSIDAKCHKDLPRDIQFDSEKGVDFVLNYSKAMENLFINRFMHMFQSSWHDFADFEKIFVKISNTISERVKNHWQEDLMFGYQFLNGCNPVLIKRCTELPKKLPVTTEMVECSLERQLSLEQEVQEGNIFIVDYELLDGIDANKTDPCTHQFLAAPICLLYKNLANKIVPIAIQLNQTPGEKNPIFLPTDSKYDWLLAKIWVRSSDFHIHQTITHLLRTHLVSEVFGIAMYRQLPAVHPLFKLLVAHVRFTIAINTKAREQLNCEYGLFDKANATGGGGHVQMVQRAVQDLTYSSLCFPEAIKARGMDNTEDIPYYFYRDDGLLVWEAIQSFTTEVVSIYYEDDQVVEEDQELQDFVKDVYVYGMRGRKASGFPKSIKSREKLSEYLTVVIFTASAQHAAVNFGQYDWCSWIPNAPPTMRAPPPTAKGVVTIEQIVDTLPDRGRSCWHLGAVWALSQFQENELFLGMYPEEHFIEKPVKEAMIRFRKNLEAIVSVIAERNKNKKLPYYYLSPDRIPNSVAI
Procedure: The test was carried out to examine the selectivity toward 12-lipoxgenase of the compounds of the first embodiment in the present invention.
i) Preparation of 5-lipoxgenase enzyme solution
Rat basophilic leukemia cells (RBL-1, ATCC CRL1378) were cultured in Dulbecco modified Eagle's medium containing 10% new-born bovine serum.
Cultured cells were collected and washed twice with a 50 mM Tris-buffered saline (containing 154 mM sodium chloride, pH: 7.4, hereinafter described as TBS). The cell suspension (4×10^7 cells/ml) was then sonicated and centrifuged at 10,000×g for 10 minutes.
The resultant supernatant was used to prepare an assay solution.
i) Procedure for 5-lipoxgenase inhibition assay
To an aliquot (15 μl) of the enzyme solution (40 mU/ml equivalent) was added 185 μl of TBS, 50 μl of a 2 mM adenosine triphosphate in TBS, 50 μl of a 12 mM calcium chloride in TBS, 1 μl of a 3 mM indomethacin in ethanol solution, 1 μl of an aqueous 300 mM reduced glutathione solution, and 3 μl of varied concentrated test compounds solution in ethanol. The resultant mixture was incubated at 37° C. for 5 minutes. Subsequently, 3 μl of a 2.5 mM arachidonic acid solution in ethanol was added to incubate the mixture for 2 minutes at 37° C. The reaction was ceased by the addition of 600 μl of methanol After being centrifuged at 10,000×g for 5 minutes, 5-hydroxyeicosatetraenoic acid recovered in the supernatant was separated with a reverse phase high-performance liquid chromatography equipped with a C-18 column and measured the absorption of diene at 234 nm to quantify the activity of the enzyme. […]
The enzyme activities of the compounds of the present invention prepared according to the same procedure as in Examples 54-58 to be described later and baicalein as sample substances at varied concentrations were measured according to the above-mentioned method, and mole concentrations showing 50% 12-lipoxgenase and 5-lipoxgenase inhibition ratios (hereinafter may be described as IC50 values) were obtained from the measured values of the sample substances.

[3] = Deacylation control test in resuspension buffer instead of enzyme solution; assay type: in vitro ADME; details: resuspension buffer instead of the enzyme solution
Procedure: (§1) One ml of the above mentioned enzyme solution was diluted with 11 ml of a resuspension buffer. To an aliquot (300 μl) of this enzyme solution was added 3 μl of a 1.0×10^-3 M test compound solution in dimethyl sulfoxide. The mixture was incubated at 37° C. for an indicated time, then the reaction was ceased by the addition of 1 ml of acetonitrile. Twenty μl of the above mixture was subjected to reverse phase high-performance liquid chromatography equipped with a C-18 column to quantify the amount of deacylated products. As a control, a test using 300 μl of the resuspension buffer solution mentioned above instead of the enzyme solution was also performed.

[4] = Deacylation by esterases present in the enzyme solution prepared from rat platelets; assay type: in vitro ADME; details: platelet enzyme solution, 37° C., read-out: conversion (%) from Formula 34b or Formula 35b to Formula 32b; for metabolised at 0.5 h, 10 µM: Reaction time 30 min.; for metabolised at 1 h, 10 µM: Reaction time 60 min.
Procedure: The test was performed to examine whether or not deacylated compounds would be formed due to esterases present in the enzyme solution when the compounds in the third embodiment according to the present invention were treated with the same enzyme solution as in Test Example 4.
The enzyme solution was prepared according to the same procedure as described in Test Example 4.
as §1
Conditions of reverse phase high-performance liquid chromatography:
Column: Superspher RP-18(e) (purchased from Merck), 4.0 mm in diameter, 125 mm in length
Flow velocity: 1.0 ml/minute
Eluent: Acetonitrile containing 50 mM NaClO4 and 50 mM orthophosphate-water (55: 45)
Column temperature: 30° C.
Calibration: Absorbance of 280 nm

[5] = Table 3, read-out: IC50 values of 12-lipoxygenase (mole)
[6] = Table 12, deacylated compounds, read-out: 12-Lipoxygenase inhibitory effect of deacylated compounds (IC50 values)
[7] = Table 3, read-out: IC50 values of 5-lipoxygenase (mole)
[8] = Table 23, read-out: 12-Lipoxygenase inhibitory effect IC50
[9] = Table 23, read-out: 5-Lipoxygenase inhibitory effect IC50

Row | Compound | IC50 (12-lipoxygenase [2]; [5]) [nM] | IC50 (5-lipoxygenase; [7]) [nM] | IC50 (12-lipoxygenase [2]; [8]) [nM] | IC50 (5-lipoxygenase; [9]) [nM] | further results
1 | O=c1cc(-c2ccccc2)oc2cc(O)c(O)c(O)c12 [Baicalein, baicalein] | – | – | – | – | 12-lipoxygenase inhibitory effect (literature, in words) (12-lipoxygenase [1]): having an inhibitory effect to 12-lipoxygenase; also recorded: relatively high 12-lipoxgenaseinhibitory activities and a relatively high selectivity
2 | N#CC(=Cc1ccc(Br)cc1)c1ccc(O)c(O)c1 [Ex. 23, α-cyano-4'-bromo-3,4-dihydroxystilbene] | 2.2 | 70 | – | – | IC50 (12-lipoxygenase [2]; [6]): 3.6 nM
3 | Cc1ccc(C=C(C#N)c2ccc(O)c(O)c2)cc1 [Ex. 24, α-cyano-4'-methyl-3,4-dihydroxystilbene] | 2.5 | 52 | – | – | IC50 (12-lipoxygenase [2]; [6]): 4.5 nM
4 | CCc1ccc(C=C(C#N)c2ccc(O)c(O)c2)cc1 [Ex. 26, α-cyano-4'-ethyl-3,4-dihydroxystilbene] | 4.2 | 32 | – | – | –
5 | Cc1ccc(C=C(C#N)c2ccc(O)c(O)c2)s1 [Ex. 27, α-(5-methylthiophen-2-ylmethylidene)-3,4-dihydroxybenzeneacetonitrile] | 7.7 | 66 | – | – | –
6 | N#CC(=Cc1ccc(O)c(O)c1)c1csc2ccccc12 [Formula 22c] | – | – | 8.6 | 56 | –
7 | N#CC(=Cc1ccc(O)c(O)c1)c1ccc2ccccc2c1 [Formula 23c] | – | – | 10 | 30 | –
8 | N#CC(=Cc1ccc2ccccc2c1)c1ccc(O)c(O)c1 [Formula 24c] | – | – | 5.6 | 28 | –
9 | N#CC(=Cc1cccc2ccccc12)c1ccc(O)c(O)c1 [Formula 25c] | – | – | 5.9 | 36 | –
10 | N#CC(=Cc1cc2ccccc2o1)c1ccc(O)c(O)c1 [Formula 26c] | – | – | 3.2 | 34 | –
11 | CC(=O)Oc1ccc(C=C(C#N)c2ccc(Cl)cc2)cc1OC(C)=O [Formula 34b] | – | – | – | – | formation of deacylated compound (Formula 32b) [3]: no deacylated compound (Formula 32b) was formed; metabolised at 0.5 h, 10 µM [4]: 70.9%; metabolised at 1 h, 10 µM [4]: 82.8%
12 | CCC(=O)Oc1ccc(C=C(C#N)c2ccc(Cl)cc2)cc1OC(=O)CC [Formula 35b] | – | – | – | – | formation of deacylated compound (Formula 32b) [3]: no deacylated compound (Formula 32b) was formed; metabolised at 0.5 h, 10 µM [4]: 56.5%; metabolised at 1 h, 10 µM [4]: 64.6%
